Results published in ChEMBL document CHEMBL1128045, “Antifungal lipopeptides: Structure-activity relationships of 3-hydroxyglutamine-modified pneumocandin B0 derivatives” (Bioorg Med Chem Lett, 1995).
In brackets after ≈: the same amount, converted by molar mass. Numbered stars: 1 amine (or outer) side, 2 acyl side, 3 side chain; on linkers, the order of the positions; unused ones are H or OH. Bridge positions count the residues as written; N and C are the ends. Square brackets hold non-standard residues; d marks the D form. Peptide text beside a SMILES is read from it. * marks the point of attachment. X8 = O=C(O)CCCCCNC(=O)C[C@@H](O)[C@H](N[*:1])C(=O)[*:2]; Orn(4R-OH) = O=C([C@H](C[C@@H](O)CN[*:3])N[*:1])[*:2]; hTyr(3R-OH) = N[C@H](C(=O)O)[C@H](O)Cc1ccc(O)cc1; X11 = COC(=O)C[C@@H](O)[C@H](N[*:1])C(=O)[*:2]; X14 = NNC(=O)C[C@@H](O)[C@H](N[*:1])C(=O)[*:2]; X3 = O=C(C[C@@H](O)[C@H](N[*:1])C(=O)[*:2])NO; X2 = O=C(O)C[C@@H](O)[C@H](N[*:1])C(=O)[*:2]; X4 = N=C(S)C[C@@H](O)[C@H](N[*:1])C(=O)[*:2]; Gln(3R-OH) = NC(=O)C[C@@H](O)[C@H](N)C(=O)O; X9 = N#CC[C@@H](O)[C@H](N[*:1])C(=O)[*:2]; Orn(3R-OH) = NCC[C@@H](O)[C@H](N)C(=O)O; Pro(3S-OH) = O=C(O)[C@H]1NCC[C@@H]1O; Hyp = O=C(O)[C@@H]1C[C@@H](O)CN1; X1 = CCC(C)CC(C)CCCCCCCCC(=O)*

How the values were obtained:
Candida albicans = test: In vitro Fungicidal activity (MFC) against Candida albicans (MY 1055).; format: functional
Beta-1,3-glucan synthase = Beta-1,3-glucan synthase (Candida albicans, UniProt O13428); test: Tested for inhibition of Beta-1,3-glucan synthase using a crude membrane of Candida albicans (MY 1208).
[1] = In vivo anti-Candida activity was determined in a mouse model of disseminated candidiasis (TOKA).; format: functional
Candida parapsilosis = test: In vitro Fungicidal activity (MFC) against Candida parapsilosis (MY 1010).; format: functional; conditions: Lodderomyces parapsilosis

Beta-1,3-glucan synthase, sequence (O13428 whole entry): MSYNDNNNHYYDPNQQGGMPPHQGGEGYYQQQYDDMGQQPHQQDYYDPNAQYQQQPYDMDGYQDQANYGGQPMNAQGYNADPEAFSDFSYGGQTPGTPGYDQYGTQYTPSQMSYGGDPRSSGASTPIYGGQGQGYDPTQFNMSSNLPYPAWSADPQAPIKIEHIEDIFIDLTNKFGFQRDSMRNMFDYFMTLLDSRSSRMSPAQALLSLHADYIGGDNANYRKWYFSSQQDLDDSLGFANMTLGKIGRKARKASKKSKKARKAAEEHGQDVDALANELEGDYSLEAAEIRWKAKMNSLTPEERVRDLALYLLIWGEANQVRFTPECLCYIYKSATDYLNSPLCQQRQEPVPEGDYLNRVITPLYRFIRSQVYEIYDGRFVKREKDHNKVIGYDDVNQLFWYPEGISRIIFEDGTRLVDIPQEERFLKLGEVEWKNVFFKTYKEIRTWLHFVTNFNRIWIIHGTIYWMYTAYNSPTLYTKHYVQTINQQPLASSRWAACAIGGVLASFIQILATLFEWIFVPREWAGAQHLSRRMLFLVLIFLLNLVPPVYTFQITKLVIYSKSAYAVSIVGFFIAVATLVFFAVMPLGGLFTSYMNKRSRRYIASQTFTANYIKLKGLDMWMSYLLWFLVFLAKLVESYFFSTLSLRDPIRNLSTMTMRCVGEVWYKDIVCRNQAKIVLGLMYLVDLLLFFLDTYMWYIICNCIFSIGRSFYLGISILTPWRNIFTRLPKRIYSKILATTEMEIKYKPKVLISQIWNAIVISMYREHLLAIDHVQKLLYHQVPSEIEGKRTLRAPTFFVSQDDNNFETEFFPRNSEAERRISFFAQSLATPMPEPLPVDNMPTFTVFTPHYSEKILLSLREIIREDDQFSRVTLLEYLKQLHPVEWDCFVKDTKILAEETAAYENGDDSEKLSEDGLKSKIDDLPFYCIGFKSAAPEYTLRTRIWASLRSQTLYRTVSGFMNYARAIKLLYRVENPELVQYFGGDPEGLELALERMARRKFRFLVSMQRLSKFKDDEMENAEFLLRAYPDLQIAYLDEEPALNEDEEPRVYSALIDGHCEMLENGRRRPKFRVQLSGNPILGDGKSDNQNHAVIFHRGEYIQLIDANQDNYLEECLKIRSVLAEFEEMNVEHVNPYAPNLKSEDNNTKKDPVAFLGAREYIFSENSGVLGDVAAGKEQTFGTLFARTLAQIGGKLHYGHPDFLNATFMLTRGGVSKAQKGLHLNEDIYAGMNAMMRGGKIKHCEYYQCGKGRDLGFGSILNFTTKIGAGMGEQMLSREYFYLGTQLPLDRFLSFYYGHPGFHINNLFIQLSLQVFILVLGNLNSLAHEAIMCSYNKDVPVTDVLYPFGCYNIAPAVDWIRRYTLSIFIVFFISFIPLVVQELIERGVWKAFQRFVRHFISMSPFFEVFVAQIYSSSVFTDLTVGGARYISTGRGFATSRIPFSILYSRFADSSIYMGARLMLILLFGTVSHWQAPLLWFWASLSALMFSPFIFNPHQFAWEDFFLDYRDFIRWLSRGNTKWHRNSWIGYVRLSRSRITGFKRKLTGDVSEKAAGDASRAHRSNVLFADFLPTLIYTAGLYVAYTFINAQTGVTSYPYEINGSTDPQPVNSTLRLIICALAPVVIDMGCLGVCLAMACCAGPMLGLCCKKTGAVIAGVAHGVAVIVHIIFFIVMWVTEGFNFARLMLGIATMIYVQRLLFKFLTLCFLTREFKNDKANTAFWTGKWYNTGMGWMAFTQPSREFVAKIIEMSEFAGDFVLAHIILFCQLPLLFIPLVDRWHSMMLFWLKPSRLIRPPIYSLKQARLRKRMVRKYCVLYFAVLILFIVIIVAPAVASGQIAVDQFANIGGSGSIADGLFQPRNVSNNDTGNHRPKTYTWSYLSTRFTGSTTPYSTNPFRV

## CCC(C)CC(C)CCCCCCCCC(=O)N[C@H]1C[C@@H](O)CNC(=O)[C@@H]2[C@@H](O)CCN2C(=O)[C@H]([C@H](O)CC(N)=O)NC(=O)[C@H]([C@H](O)Cc2ccc(O)cc2)NC(=O)[C@@H]2C[C@@H](O)CN2C(=O)[C@H]([C@@H](C)O)NC1=O (stereo partly drawn) (X1-[Orn(4R-OH)]T[Hyp][hTyr(3R-OH)][Gln(3R-OH)][Pro(3S-OH)]; lactam 1-C)
Candida albicans
  MFC: 0.25 µg/mL (≈ 0.242 µM)
Beta-1,3-glucan synthase
  IC50: 70 nM
[1]
  ED99.9: >6 mg/kg
Candida parapsilosis
  MFC: 2 µg/mL (≈ 1.94 µM)

## CCC(C)CC(C)CCCCCCCCC(=O)N[C@H]1C[C@@H](O)CNC(=O)[C@@H]2[C@@H](O)CCN2C(=O)[C@H]([C@H](O)CCN)NC(=O)[C@H]([C@H](O)Cc2ccc(O)cc2)NC(=O)[C@@H]2C[C@@H](O)CN2C(=O)[C@H]([C@@H](C)O)NC1=O (stereo partly drawn) (X1-[Orn(4R-OH)]T[Hyp][hTyr(3R-OH)][Orn(3R-OH)][Pro(3S-OH)]; lactam 1-C)
Candida albicans
  MFC: 0.125 µg/mL (≈ 0.123 µM)
Beta-1,3-glucan synthase
  IC50: 10 nM
[1]
  ED99.9: 1.5 mg/kg

## CCC(C)CC(C)CCCCCCCCC(=O)N[C@H]1C[C@@H](O)CNC(=O)[C@@H]2[C@@H](O)CCN2C(=O)[C@H]([C@H](O)CC(=O)O)NC(=O)[C@H]([C@H](O)Cc2ccc(O)cc2)NC(=O)[C@@H]2C[C@@H](O)CN2C(=O)[C@H]([C@@H](C)O)NC1=O (stereo partly drawn) (X1-[Orn(4R-OH)]T[Hyp][hTyr(3R-OH)][X2][Pro(3S-OH)]; lactam 1-C)
Candida albicans
  MFC: 0.25 µg/mL (≈ 0.242 µM)
Beta-1,3-glucan synthase
  IC50: 400 nM
[1]
  ED99.9: >6 mg/kg
Candida parapsilosis
  MFC: 8 µg/mL (≈ 7.74 µM)

## CCC(C)CC(C)CCCCCCCCC(=O)N[C@H]1C[C@@H](O)CNC(=O)[C@@H]2[C@@H](O)CCN2C(=O)[C@H]([C@H](O)CC(=O)NO)NC(=O)[C@H]([C@H](O)Cc2ccc(O)cc2)NC(=O)[C@@H]2C[C@@H](O)CN2C(=O)[C@H]([C@@H](C)O)NC1=O (stereo partly drawn) (X1-[Orn(4R-OH)]T[Hyp][hTyr(3R-OH)][X3][Pro(3S-OH)]; lactam 1-C)
Candida albicans
  MFC: 0.25 µg/mL (≈ 0.238 µM)
Beta-1,3-glucan synthase
  IC50: 80 nM
[1]
  ED99.9: 6 mg/kg
Candida parapsilosis
  MFC: 4 µg/mL (≈ 3.81 µM)

## CCC(C)CC(C)CCCCCCCCC(=O)N[C@H]1C[C@@H](O)CNC(=O)[C@@H]2[C@@H](O)CCN2C(=O)[C@H]([C@H](O)CC(=N)S)NC(=O)[C@H]([C@H](O)Cc2ccc(O)cc2)NC(=O)[C@@H]2C[C@@H](O)CN2C(=O)[C@H]([C@@H](C)O)NC1=O (stereo partly drawn) (X1-[Orn(4R-OH)]T[Hyp][hTyr(3R-OH)][X4][Pro(3S-OH)]; lactam 1-C)
Candida albicans
  MFC: 0.25 µg/mL (≈ 0.238 µM)
Beta-1,3-glucan synthase
  IC50: 120 nM
[1]
  ED99.9: >6 mg/kg
Candida parapsilosis
  MFC: 4 µg/mL (≈ 3.81 µM)

## CCC(C)CC(C)CCCCCCCCC(=O)N[C@H]1C[C@@H](O)CNC(=O)[C@@H]2[C@@H](O)CCN2C(=O)[C@H]([C@H](O)CC(=O)NCCCCCC(=O)O)NC(=O)[C@H]([C@H](O)Cc2ccc(O)cc2)NC(=O)[C@@H]2C[C@@H](O)CN2C(=O)[C@H]([C@@H](C)O)NC1=O (stereo partly drawn) (X1-[Orn(4R-OH)]T[Hyp][hTyr(3R-OH)][X8][Pro(3S-OH)]; lactam 1-C)
Candida albicans
  MFC: 2 µg/mL (≈ 1.74 µM)
Beta-1,3-glucan synthase
  IC50: 900 nM
Candida parapsilosis
  MFC: 64 µg/mL (≈ 55.8 µM)

## CCC(C)CC(C)CCCCCCCCC(=O)N[C@H]1C[C@@H](O)CNC(=O)[C@@H]2[C@@H](O)CCN2C(=O)[C@H]([C@H](O)CC#N)NC(=O)[C@H]([C@H](O)Cc2ccc(O)cc2)NC(=O)[C@@H]2C[C@@H](O)CN2C(=O)[C@H]([C@@H](C)O)NC1=O (stereo partly drawn) (X1-[Orn(4R-OH)]T[Hyp][hTyr(3R-OH)][X9][Pro(3S-OH)]; lactam 1-C)
Candida albicans
  MFC: 1 µg/mL (≈ 0.985 µM)
Beta-1,3-glucan synthase
  IC50: 100 nM
Candida parapsilosis
  MFC: 4 µg/mL (≈ 3.94 µM)

## CCC(C)CC(C)CCCCCCCCC(=O)N[C@H]1C[C@@H](O)CNC(=O)[C@@H]2[C@@H](O)CCN2C(=O)[C@H]([C@H](O)CC(=O)OC)NC(=O)[C@H]([C@H](O)Cc2ccc(O)cc2)NC(=O)[C@@H]2C[C@@H](O)CN2C(=O)[C@H]([C@@H](C)O)NC1=O (stereo partly drawn) (X1-[Orn(4R-OH)]T[Hyp][hTyr(3R-OH)][X11][Pro(3S-OH)]; lactam 1-C)
Candida albicans
  MFC: 0.5 µg/mL (≈ 0.477 µM)
Beta-1,3-glucan synthase
  IC50: 180 nM
[1]
  ED99.9: >6 mg/kg
Candida parapsilosis
  MFC: 4 µg/mL (≈ 3.82 µM)

## CCC(C)CC(C)CCCCCCCCC(=O)N[C@H]1C[C@@H](O)CNC(=O)[C@@H]2[C@@H](O)CCN2C(=O)[C@H]([C@H](O)CC(=O)NN)NC(=O)[C@H]([C@H](O)Cc2ccc(O)cc2)NC(=O)[C@@H]2C[C@@H](O)CN2C(=O)[C@H]([C@@H](C)O)NC1=O (stereo partly drawn) (X1-[Orn(4R-OH)]T[Hyp][hTyr(3R-OH)][X14][Pro(3S-OH)]; lactam 1-C)
Candida albicans
  MFC: 4 µg/mL (≈ 3.82 µM)
Beta-1,3-glucan synthase
  IC50: 110 nM
Candida parapsilosis
  MFC: 8 µg/mL (≈ 7.63 µM)
